{
  "source": "patent US5552156A",
  "about": "“Liposomal and micellular stabilization of camptothecin drugs” (Ohio State University, priority 1995, dated 1996)",
  "key": {"[1]": {"assay": "Iodide quenching of camptothecin fluorescence", "assay_type": "physicochemical", "from_the_text": "Additional evidence that the fluorochrome of the camptothecin drugs penetrates into the membrane of the liposome comes from iodide quenching data. Iodide has an immeasurably small permeation of the liposome membrane and is able to discriminate between camptothecin drug molecules free in solution and those molecules located in the interior of the liposome membrane. These methods have been described in detail in Burke and Tritton, Biochemistry (1985) 24: 5972-5980; G. L. Jendrasiak, Chem. Phys. Lipids 9: 133-146 (1992); and, M. Cranney et al. Biochem. Biophys. ACTA 735, 418-425, which are incorporated herein by reference. The quenching studies were conducted using 0.5M iodide in PBS buffer.\nThe quenching of fluorescence of both camptothecin free in PBS and liposome membrane bound camptothecin by iodide ions was conducted at a constant halide concentration of 0.5M, in the presence of 2 mM sodium thiosulfate to prevent the oxidation of iodide. The camptothecin concentration was 1×10^-6 M and the iodide concentration was varied from 0 to 0.5M, and the chloride concentration was adjusted accordingly. The quenching experiments for the camptothecin bound to DMPC or DMPG liposome membranes were done at a lipid concentration of 100 mg/mL, so that the fraction of the bound camptothecin was more than 97%.\nFluorescence of the liposome membrane bound camptothecin is quenched to relatively lower extent, for instance, F0 /F, for camptothecin bound to DMPC liposomes is only 4.1 (see Plot C). Also, there is a clear cut upward curvature in the F0 /F vs. [I] plot (curve \"A\", […]) for camptothecin free in PBS whereas F0 /F vs. [I] plot for camptothecin bound with DMPC membranes is linear. Quenching of fluorescence is believed to proceed via the dynamic (or collisional) and static quenching processes. Fluorescence quenching by a quencher molecule in contact with the fluorophore at the instant of excitation is considered to be static quenching. The static and dynamic quenching processes are separated by the following modified form of the Stern-Volmer equation (Eftink & Ghiron, 1976): […]\nwhere, V is the static quenching constant and Ksv the dynamic or collisional quenching constant. The V and Ksv values were obtained by fitting the quenching data to equation 3 with a value of V which gave the best correlation coefficient for the plot of F0 /Fe^v[Q] vs. [Q]. The upward curvature of the quenching data of free camptothecin free in PBS seen in FIG. 8 could be attributed to the static quenching process. The straight line \"B\", which is tangential to the F0 /F vs. [I] plot for free camptothecin in PBS, represents the dynamic part of the iodide quenching of camptothecin fluorescence, the slope of which is equal to Ksv (slope=44 3M^-1 where V=14M^-1 correlation coefficient=0.9993). The Stern-Volmer plot for the liposome bound camptothecin is linear, curve \"C\", FIG. 8, the slope being 6.1M^-1. […] The dashed line represents the static and dynamic quenching components camptothecin free in solution is determined by F0 /F values."}, "[2]": {"tested_on": "lung, breast, and malignant melanoma", "settings": "background; cited from earlier work"}, "[3]": {"assay": "Overall association constant by fluorescence anisotropy titration, DMPC liposomes", "assay_type": "physicochemical", "settings": "2 mM drug, 0.29M DMPC"}, "[4]": {"settings": "bound to DMPC liposomes, iodide"}},
  "note": "Several values for one entry are separate records, joined by “and”; a condition that tells them apart may be missing. Equal entries are not always repeated.",
  "data": [
    {"molecule": "CC[C@@]1(O)C(=O)OCc2c1cc1n(c2=O)Cc2cc3ccccc3nc2-1", "note": "[camptothecin]", "values": [
      {"measurement": "fraction of bound camptothecin in quenching experiments", "setting": "[1]; DMPC or DMPG, lipid 100 mg/mL", "value": "more than 97%"},
      {"measurement": "F0/F (iodide quenching), DMPC-bound", "setting": "[1]; bound to DMPC liposomes, 0.5M iodide", "value": 4.1},
      {"measurement": "dynamic quenching constant Ksv (slope), DMPC-bound", "setting": "[1]; [4]", "value": "6.1 M⁻¹ and 6.2 M⁻¹"},
      {"measurement": "static quenching constant V, DMPC-bound", "setting": "[1]; [4]", "value": 0, "unit": "M⁻¹"},
      {"measurement": "F0/F (iodide quenching), free", "setting": "[1]; free in PBS pH 7.4, 0.5M iodide", "value": "about 54.3"},
      {"measurement": "dynamic quenching constant Ksv, free", "setting": "[1]; free in PBS, iodide", "value": 44.3, "unit": "M⁻¹"},
      {"measurement": "effectiveness against other experimental cancer types", "setting": "[2]", "value": "effective against other experimental cancer types such as lung, breast, and malignant melanoma"},
      {"measurement": "bound camptothecin level at raised drug concentration", "setting": "[3]", "value": 97, "unit": "%"}
    ]}
  ]
}
